Experimental data: patent US20060205771A1, “Caspase inhibitors as anticancer agents” (priority 2002, published 2006)
*: point of attachment. Cbz = O=C(OCc1ccccc1)*; CH2F = FC*

Columns and labels:
caspase-3 = biological target: T1, caspase-3 (Homo sapiens, UniProt P42574); conditions: cited from earlier work
T1 sequence (P42574 29-175 limits assumed): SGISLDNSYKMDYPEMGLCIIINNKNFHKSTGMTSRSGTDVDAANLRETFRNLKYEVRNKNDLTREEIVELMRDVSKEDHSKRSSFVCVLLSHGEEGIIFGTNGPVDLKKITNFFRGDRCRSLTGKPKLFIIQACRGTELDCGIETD
T1 sequence (P42574 176-277 limits assumed): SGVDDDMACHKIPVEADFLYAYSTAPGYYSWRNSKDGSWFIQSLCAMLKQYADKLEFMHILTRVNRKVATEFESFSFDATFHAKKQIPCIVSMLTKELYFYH

Caspase-1 = biological target: T2, Caspase-1 (Homo sapiens, UniProt P29466); conditions: cited from earlier work
T2 sequence (P29466 120-297 limits assumed): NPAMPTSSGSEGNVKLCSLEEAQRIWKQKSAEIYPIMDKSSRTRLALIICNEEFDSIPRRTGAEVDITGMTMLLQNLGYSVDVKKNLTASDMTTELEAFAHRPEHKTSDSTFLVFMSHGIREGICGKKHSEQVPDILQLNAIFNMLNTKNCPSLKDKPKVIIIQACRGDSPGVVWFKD
T2 sequence (P29466 317-404 limits assumed): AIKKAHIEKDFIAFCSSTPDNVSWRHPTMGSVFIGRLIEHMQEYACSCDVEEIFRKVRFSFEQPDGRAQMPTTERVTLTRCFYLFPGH

normal astrocytes = assay: BCNU cytotoxicity on normal astrocytes; assay type: cell-based; conditions: agent alone, FIG. 8
Experimental: (§1) A variety of cells were exposed to BCNU (also known as carmustine) in the presence of a variety of caspase inhibitors. This alkylating agent is frequently employed in the treatment of cancers of the central nervous system, as well as for treatment of certain lymphomas. The growth of tumor cells and normal human brain precursor cells in chemically-defined medium was assayed under various conditions of alkylating agent and/or caspase inhibitor. Cells were exposed to BCNU at varying dosages, depending upon the outcome of characterization of their sensitivity to BCNU. In general, dosages were employed for which it would be possible to recognize protection from the cytotoxic effects of this alkylating agent, as well as to recognize increased anticancer activity depending on the conditions, of for example, the caspase inhibitor and the activity of this compound.

[1] = system: UT-9 astrocytoma cell line; assay: survival of UT-9 astrocytoma cell line (MTT/DAPI count); assay type: cell-based; conditions: BCNU alone at doses equivalent to those used for 1789 and UT-12, FIG. 5
Experimental: as §1
(§2) After 24 hours, cells were pretreated for 1 hour with caspase inhibitors at a concentration of 20 microM, following exposure to BCNU for 1 hour at concentrations that would kill approximately 50% of the tumor cells, as determined by dose-response experiments. In general, the BCNU concentration applied ranged from 5 microg/ml to 20 microg/ml. Exposure periods were based upon the known clearance rate of BCNU in vivo. […] Percentages of cell survival were normalized to controls. All experiments were performed at least as quadruplicates. […]

NIH3T3 cells = conditions: cited from earlier work
SW480 colon cancer cells = assay: cisplatin-induced death of SW480 colon cancer cells; assay type: cell-based; conditions: cisplatin alone, FIG. 10
[2] = system: H460 (non-small cell lung cancer); conditions: H460 cell line; cited from earlier work
human liver cells = conditions: cited from earlier work
[3] = system: SW480 (colon adenocarcinoma); conditions: SW480 cell line; cited from earlier work
[4] = system: UT-12 glioblastoma cell line; assay: survival of UT-12 glioblastoma cell line (MTT/DAPI count); assay type: cell-based; conditions: UT-12 glioma cells; FIG. 6
Experimental: as §1, §2

**Q.** For c-DEVD-CHO, which “inhibition of caspase-3” value (caspase-3) is on record?
**A.** inhibits preferentially (but not specifically) caspase-3

**Q.** Which “inhibition of Caspase-1” value (Caspase-1) does the source give for Ac-YVAD-CHO here?
**A.** strong inhibitor of Caspase-1

**Q.** What does the source list for O=NN(CCCl)C(=O)NCCCl [BCNU, carmustine]?
**A.** killing of astrocytes (normal astrocytes): Astrocytes were killed by BCNU; reduction in cell number [1]: causes only a minor reduction in cell number

**Q.** Which “sensitization to the action of TNF” value (NIH3T3 cells; Luschen et al, 2000) does the source give for zVAD.fmk here?
**A.** Sensitization to the action of TNF

**Q.** With COc1ccc(O)c(C(C)(C)C)c1 [BHA, butylated hydroxyanisole] as the compound, how does the “protection from cytotoxicity of tumor necrosis factor plus caspase-8 inhibition” value (NIH3T3 cells; pretreatment, Luschen et al.) read?
**A.** protected NIH3T3 cells from cytotoxicity induced by the combination of tumor necrosis factor and caspase-8 inhibition

**Q.** With N.N.[Cl][Pt][Cl] [cisplatin, Cisplatin] as the compound, how does the “cell death / reduction in number of cells” value (SW480 colon cancer cells) read?
**A.** cisplatin-induced death

**Q.** For Cbz-LEHD-CH2F, which “protection from TRAIL induced death” value [2] is on record?
**A.** did not protect

**Q.** And the “protection from TRAIL-associated toxicity” value (human liver cells)?
**A.** effectively protects liver cells from TRAIL-associated toxicity

**Q.** And the “protection from TRAIL induced death” value [3]?
**A.** did not protect

**Q.** For “TRAIL: tumor necrosis factor-related apoptosis-inducing ligand”, which “induction of cell death” value (human liver cells) is on record?
**A.** induces cell death in human liver cells by a caspase-9 dependent mechanism

**Q.** For O=C1O[C@H]([C@@H](O)CO)C(O)=C1O [Vitamin C, ascoribic acid], which “cell killing by the full combination (caspase 9 and pan-caspase inhibition, BCNU, Vitamin C)” value [4] is on record?
**A.** kills all of the UT-12 glioma cells
